The record followed here is paper PMC11048033, “Dual Anti-Inflammatory and Anticancer Activity of Novel 1,5-Diaryl Pyrazole Derivatives: Molecular Modeling, Synthesis, In Vitro Activity, and Dynamics Study” (Biomedicines, 2024).

Bounds are passed on as bounds.

For series [1], the target named is BSA (bovine albumin serum) (Bos taurus, UniProt P02769). As to the kind of experiment: Protein (albumin) denaturation assay. Particulars: maximum inhibition; compounds tested at 50-200 µg/mL, diclofenac 100 µg/mL. On the procedure: Mizushima and Kobayashi’s technique was employed for the determination of in vitro anti-inflammatory activity by the protein denaturation method for the synthesized compounds. […] Then, a mixture of 500µL of 1% aqueous solution of BSA (bovine albumin serum) and 1.4 mL of phosphate buffer saline (PBS, pH 7.4) was added to 100 µL of varying concentrations of the synthesized compounds 50, 100, and 200 µg/mL. […] The mixtures are then incubated for 15 min at 37 °C and then heated for 10 min at 60 °C. The absorbance was measured at 660nm (SHIMADZU, UV-1800 Spectrophotometer) upon cooling. […] The entire experiment was done in triplicate, and the average was calculated. % inhibition of protein denaturation was calculated by: % inhibition=Absorbance of Control−Absorbance of Sample/Absorbance of Control×100
BSA (bovine albumin serum), sequence (P02769 25-607): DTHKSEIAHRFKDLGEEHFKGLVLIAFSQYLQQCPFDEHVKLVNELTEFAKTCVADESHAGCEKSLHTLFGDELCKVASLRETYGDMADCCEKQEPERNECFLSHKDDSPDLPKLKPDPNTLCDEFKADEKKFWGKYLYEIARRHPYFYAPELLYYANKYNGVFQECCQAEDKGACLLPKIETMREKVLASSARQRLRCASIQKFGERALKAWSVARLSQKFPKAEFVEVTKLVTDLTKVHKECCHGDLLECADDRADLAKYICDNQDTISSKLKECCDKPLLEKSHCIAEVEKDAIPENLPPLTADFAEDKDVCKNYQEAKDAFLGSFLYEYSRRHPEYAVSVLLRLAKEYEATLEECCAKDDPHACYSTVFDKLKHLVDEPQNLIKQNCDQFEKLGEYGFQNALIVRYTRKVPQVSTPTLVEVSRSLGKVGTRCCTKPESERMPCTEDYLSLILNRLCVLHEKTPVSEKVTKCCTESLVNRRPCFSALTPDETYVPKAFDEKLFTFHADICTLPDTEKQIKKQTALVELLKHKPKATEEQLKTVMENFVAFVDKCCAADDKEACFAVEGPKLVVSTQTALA
The anti-inflammatory capacity of the target compound was evaluated using the protein denaturation assay.

For series [2], the system named is HEPG2 (human liver) cell line. As to the kind of experiment: MTT anticancer assay, HepG2. The format is cell-based. The protocol:
(§1) The in vitro anticancer activity is determined by counting the viable cells that are stained with a vital dye. The MTT technique is an accurate measure of the activity of live cells using mitochondrial dehydrogenases. The target tumor cells A549 (human lung adenocarcinoma) and HEPG2 (human liver) cell lines are procured from the “National Centre for Cell Science” (NCCS, Pune). The sources of reagents like Trypsin, DMEM, Pen strip, and FBS are procured from Himedia. […] The culture medium was prepared, and the MTT assay was performed as per the general procedure described by Mosmann T. et al., [30] and the % viability of the cells was determined.
(§2) The target compounds tested for in vitro COX-2 were further checked for in vitro anti-cancer activity against A549 (lung cancer) and HepG2 (liver cancer) cell lines using MTT growth inhibition assay. The compounds were tested for cytotoxicity against both the cell lines at concentrations of 6.25, 12.5, 25, 50, and 100 µg/mL. […] Using the graph where % cell viability is plotted versus concentration, the IC50 values are determined with the help of the dose–response regression equation.

The target of the next series is T1, Human COX-2 (Homo sapiens, UniProt P35354).
T1 construct: purchased Cayman Chemicals 701230
T1 sequence (P35354 18-604): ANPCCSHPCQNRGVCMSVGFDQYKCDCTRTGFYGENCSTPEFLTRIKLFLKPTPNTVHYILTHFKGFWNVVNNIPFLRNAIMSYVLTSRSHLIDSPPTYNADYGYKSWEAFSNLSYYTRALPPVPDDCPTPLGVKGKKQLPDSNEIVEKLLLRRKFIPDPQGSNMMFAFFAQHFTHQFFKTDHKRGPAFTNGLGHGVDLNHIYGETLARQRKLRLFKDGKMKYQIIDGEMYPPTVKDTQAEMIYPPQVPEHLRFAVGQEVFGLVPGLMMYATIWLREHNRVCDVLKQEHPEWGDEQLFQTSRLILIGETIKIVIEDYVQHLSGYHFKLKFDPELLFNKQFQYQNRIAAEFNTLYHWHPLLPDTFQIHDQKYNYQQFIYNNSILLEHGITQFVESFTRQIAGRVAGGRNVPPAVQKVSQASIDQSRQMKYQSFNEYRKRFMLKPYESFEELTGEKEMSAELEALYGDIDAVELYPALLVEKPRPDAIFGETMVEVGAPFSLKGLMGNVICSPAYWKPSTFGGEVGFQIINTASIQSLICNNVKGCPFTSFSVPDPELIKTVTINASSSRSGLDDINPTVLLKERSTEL
As to the kind of experiment: In vitro COX-2 enzymatic assay (Cayman COX (human) Inhibitor Screening Assay Kit). The format is biochemical. Particulars: human COX-2. On the procedure:
The ability of the compounds to inhibit COX -2 (IC50 values, µM) was determined by using a “COX (human) Inhibitor Screening Assay Kit” procured from Cayman Chemicals (catalog number 701230). With a slight modification in the method as defined in the reference, the COX-2 inhibition assay was performed. Using the percent conversion of arachidonic acid (AA) to PGH2, the enzyme activity was calculated. By enzyme immunoassay PGF2α, which is produced from PGH2 by reduction with stannous chloride, is calculated. The test compounds’ stock solutions are prepared by dissolving in a minimum amount of DMSO. Human COX-2 (10 µL) in the presence of 10 µL of heme was suspended in 0.1M Tris-HCl buffer (pH 8.0) which contains 2 mM phenol and 5 mM EDTA. This was added to various concentrations of test compounds and, on incubating the solutions at 37 °C for 5 min, 10 µL of AA solution were added. Later, the COX reaction was stopped by adding 1M HCl (50 µL) after 2 min. The intensity of the yellow color which is produced as the product of the enzymatic reaction is determined spectrophotometrically. The percent inhibition was calculated by comparing the compound treated to different control incubations. […] The determinations are done in triplicate and the IC50 (µM) was determined using the concentration–inhibition response curve.
During the initiation of the inflammatory process, the COX enzyme plays a vital role in the progression of inflammatory response. The inflammatory mediators that arise due to the action of COX lead to the chemoattraction of neutrophils, macrophages, eosinophils, etc. […] This was carried out with the help of a COX (human) inhibitor screening assay kit (Item no. 701230) from Cayman chemicals. […] A test substance concentration was considered to be inhibitive when it inhibited human COX-1 or COX-2 by 50%. The compound’s selectivity was measured by its selectivity index values, derived as IC50 (COX-1)/IC50 (COX-2).

Series [3] concerns A549 (human lung adenocarcinoma) cell line. As to the kind of experiment: MTT anticancer assay, A549. The format is cell-based. The protocol:
as §1, §2

Consider `COc1ccc(-c2cc(C(=O)NN=Cc3cccc(Oc4ccccc4)c3)nn2-c2ccc(S(N)(=O)=O)cc2)cc1` [Compound T1, 4-(5-(4-methoxyphenyl)-3-(2-(3-phenoxybenzylidene) hydrazine-1-carbonyl)-1H-pyrazol-1-yl) benzenesulfonamide], for which the “% inhibition of albumin denaturation” value in series [1] was “less than 50%”.
Regarding `COc1ccc(-c2cc(C(=O)NN=Cc3ccc(Oc4ccccc4)cc3)nn2-c2ccc(S(N)(=O)=O)cc2)cc1` [Compound T2, 4-(5-(4-methoxyphenyl)-3-(2-(4-phenoxybenzylidene) hydrazine-1-carbonyl)-1H-pyrazol-1-yl) benzenesulfonamide], the “% cell viability” value in series [2] (HepG2, 6.25 µg/ml) turned out to be 78.42%; in series [2] (HepG2, 12.5 µg/ml) it was 77.90%; in series [2] (HepG2, 25 µg/ml) it was 71.82%; in series [2] (HepG2, 50 µg/ml) it was 67.10%; in series [2] (HepG2, 100 µg/ml) it was 64.39%; in series [3] (A549, 6.25 µg/ml) it was 95.63%. In addition, the “% cell viability” value amounted to 81.83% in series [3] (A549, 12.5 µg/ml); 54.02% in series [3] (A549, 25 µg/ml); 33.98% in series [3] (A549, 50 µg/ml); 18.25% in series [3] (A549, 100 µg/ml). In addition, the “IC50 against HepG2” value in series [2] (MTT, HepG2) is reported as more than 100 µM. Also, the “% inhibition of albumin denaturation” value in series [1] is recorded as 81.77%. In addition, on Human COX-2, the half-inhibitory concentration (IC50) stood at 12 µM. Also, the “anti-cancer activity against A549 cell lines (in words)” value in series [3] (A549) was “active”. The “concentration at which compound was effective (from % inhibitory values)” value in series [3] (A549 cell lines) worked out at 25 µg/mL. Also, the “IC50 against A549” value in series [3] (MTT, A549) was 31.49 µM.
`NS(=O)(=O)c1ccc(-n2nc(C(=O)NN=Cc3cccc(Oc4ccccc4)c3)cc2-c2ccc(Br)cc2)cc1` [Compound T4, 4-(5-(4-bromophenyl)-3-(2-(3-phenoxybenzylidene) hydrazine-1-carbonyl)-1H-pyrazol-1-yl) benzenesulfonamide]: the “% inhibition of albumin denaturation” value in series [1] was “less than 50%”.
Regarding `Cc1cc(C=NNC(=O)c2cc(-c3ccc(Cl)cc3)n(-c3ccc(S(N)(=O)=O)cc3)n2)cc(C)c1OCc1ccccc1` [Compound T6, 4-(3-(2-(4-(benzyloxy)-3,5-dimethylbenzylidene) hydrazine-1-carbonyl)-5-(4-chlorophenyl)-1H-pyrazol-1-yl)benzenesulfonamide], the “anti-cancer activity against HepG2 cell line (in words)” value in series [2] (HepG2) is “active”. Further, the viability at 6.25 µg/mL came to 24.1% in series [2] (Homo sapiens, HepG2, 6.25 µg/ml) and 97.7% in series [3] (Homo sapiens, A549, 6.25 µg/ml). Moreover, the viability at 12.5 µg/mL in series [2] (Homo sapiens, HepG2, 12.5 µg/ml) came to 11%; in series [3] (Homo sapiens, A549, 12.5 µg/ml) it was 87%. Besides, the viability at 25 µg/mL in series [2] (Homo sapiens, HepG2, 25 µg/ml) amounted to 2.99%; in series [3] (Homo sapiens, A549, 25 µg/ml) it was 78.8%. Besides, the viability at 50 µg/mL in series [2] (Homo sapiens, HepG2, 50 µg/ml) turned out to be 2.87%; in series [3] (Homo sapiens, A549, 50 µg/ml) it was 74.6%. The viability at 100 µg/mL in series [2] (Homo sapiens, HepG2, 100 µg/ml) was 2.62%; in series [3] (Homo sapiens, A549, 100 µg/ml) it was 63.4%. Besides, the concentration for half-maximal inhibition (IC50) in series [2] (Homo sapiens, MTT, HepG2, read-out: IC50 against HepG2) was less than 6.25 µg/mL; against Human COX-2 it was 2.54 µM; in series [3] (Homo sapiens, MTT, A549, read-out: IC50 against A549), more than 100 µg/mL. Also, in series [1], the “% inhibition of albumin denaturation” value turned out to be 61.05%.
As for `NS(=O)(=O)c1ccc(-n2nc(C(=O)NN=Cc3ccc(Oc4ccccc4)cc3)cc2-c2ccc(Br)cc2)cc1` [Compound T7, 4-(5-(4-bromophenyl)-3-(2-(4-phenoxybenzylidene) hydrazine-1-carbonyl)-1H-pyrazol-1-yl) benzenesulfonamide], in series [1], the “% inhibition of albumin denaturation” value was “less than 50%”.
Turning to `NS(=O)(=O)c1ccc(-n2nc(C(=O)NN=Cc3ccc(Oc4ccccc4)cc3)cc2-c2ccc(Cl)cc2)cc1` [Compound T8, 4-(5-(4-chlorophenyl)-3-(2-(4-phenoxybenzylidene) hydrazine-1-carbonyl)-1H-pyrazol-1-yl) benzenesulfonamide], the “% inhibition of albumin denaturation” value in series [1] was “less than 50%”.
As for `NS(=O)(=O)c1ccc(-n2nc(C(=O)NN=Cc3ccc(Cl)cc3O)cc2-c2ccc(Br)cc2)cc1` [Compound T9, 4-(5-(4-bromophenyl)-3-(2-(4-chloro-2-hydroxybenzylidene) hydrazine-1-carbonyl)-1H-pyrazol-1-yl) benzenesulfonamide], the “% cell viability” value in series [2] (HepG2, 6.25 µg/ml) was 85.46%; in series [2] (HepG2, 12.5 µg/ml) it was 84.90%; in series [2] (HepG2, 25 µg/ml) it was 79.30%; in series [2] (HepG2, 50 µg/ml), 67.24%; in series [2] (HepG2, 100 µg/ml), 54.42%; in series [3] (A549, 6.25 µg/ml), 91.72%. Moreover, the “% cell viability” value in series [3] (A549, 12.5 µg/ml) came to 84.82%; in series [3] (A549, 25 µg/ml), 76.64%; in series [3] (A549, 50 µg/ml), 66.94%; in series [3] (A549, 100 µg/ml), 54.57%. In series [2] (MTT, HepG2), the “IC50 against HepG2” value is recorded as more than 100 µM. In series [1], the “% inhibition of albumin denaturation” value was determined as 67.77%. The IC50 against Human COX-2 is 3.5 µM. The “IC50 against A549” value in series [3] (MTT, A549) is recorded as more than 100 µM.
On to `NS(=O)(=O)c1ccc(-n2nc(C(=O)NN=Cc3ccc(Cl)cc3O)cc2-c2ccccc2)cc1` [Compound T10, 4-(3-(2-(4-chloro-2-hydroxybenzylidene) hydrazine-1-carbonyl)-5-phenyl-1H pyrazol-1-yl) benzenesulfonamide], for which, in series [1], the “% inhibition of albumin denaturation” value is “less than 50%”.
